Assay results: patent US20090042773A1, “P13 kinase gamma inhibitors for the treatment of anaemia” (priority 2004, published 2009)

Tests used:
[1] = target: Human recombinant GST-PI3Kα (Homo sapiens, UniProt P42336)
[2] = target: Human recombinant GST-PI3Kγ (Homo sapiens, UniProt P48736)
[3] = target: T1, Human recombinant GST-PI3Kδ (Homo sapiens, UniProt O00329)
T1 sequence (O00329 1-1044): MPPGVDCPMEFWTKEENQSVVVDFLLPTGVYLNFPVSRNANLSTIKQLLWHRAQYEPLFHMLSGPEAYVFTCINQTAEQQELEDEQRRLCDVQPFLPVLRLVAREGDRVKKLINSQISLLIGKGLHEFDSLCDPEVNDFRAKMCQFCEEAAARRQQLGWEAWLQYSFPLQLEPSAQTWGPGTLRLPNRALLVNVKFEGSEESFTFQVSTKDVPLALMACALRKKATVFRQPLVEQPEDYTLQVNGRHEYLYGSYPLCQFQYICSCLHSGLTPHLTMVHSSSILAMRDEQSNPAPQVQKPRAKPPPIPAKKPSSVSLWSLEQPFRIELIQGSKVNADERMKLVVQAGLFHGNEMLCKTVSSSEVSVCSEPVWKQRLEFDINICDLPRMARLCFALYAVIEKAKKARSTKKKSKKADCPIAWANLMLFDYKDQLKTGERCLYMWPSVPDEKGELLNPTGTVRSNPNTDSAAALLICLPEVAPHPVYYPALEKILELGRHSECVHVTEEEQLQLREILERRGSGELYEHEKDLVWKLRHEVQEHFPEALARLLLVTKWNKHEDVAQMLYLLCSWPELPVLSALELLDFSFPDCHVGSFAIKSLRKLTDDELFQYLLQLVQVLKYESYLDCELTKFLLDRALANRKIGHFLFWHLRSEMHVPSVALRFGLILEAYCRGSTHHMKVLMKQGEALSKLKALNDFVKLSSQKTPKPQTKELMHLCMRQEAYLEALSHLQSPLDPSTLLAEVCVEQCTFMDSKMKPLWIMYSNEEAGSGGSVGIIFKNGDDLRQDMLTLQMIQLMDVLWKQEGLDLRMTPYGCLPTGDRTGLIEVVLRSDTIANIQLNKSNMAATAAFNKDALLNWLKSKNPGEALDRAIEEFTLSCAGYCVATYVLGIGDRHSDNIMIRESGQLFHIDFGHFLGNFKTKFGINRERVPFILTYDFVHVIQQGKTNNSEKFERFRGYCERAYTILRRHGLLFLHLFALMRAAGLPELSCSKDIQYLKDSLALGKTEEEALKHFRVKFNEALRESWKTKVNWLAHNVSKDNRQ

[4] = tested on: K562 erythroleukemia cells; settings: Neri et al., Cellular Signalling 14 (2002) 21; cited from earlier work
[5] = tested on: Mobilized CD34 positive stem cells; experiment: EPO induced erythrocyte formation (stem cell culture, colony assay, flow cytometry); type: cell-based
Text: b) EPO Induced Erythrocyte Formation:
Investigation of the effect of PI3K inhibitors on the differentiation of red cell population, but also on the expansion of undifferentiated stem cells. Two different culture systems. A and B, were explored.
Culture System A (Containing No IL-3):
Differentiation of bone-marrow derived stem cells into the red cell line only. Semi-optimal systems in respect of the expansion of colony forming units, because of the lack of IL3 and other early acting growth factors.
The culture conditions are: IMDM-culture medium, 30% pre-selected fetal calf serum, 1% BSA, Glutamine 40 ug/ml iron saturated transferin, 10−6 Mol Mercaptoethanol, 10 ng/ml SCF, 100 U/ml IL6, 7 U Epo.
Culture System B (Containing IL-3):
Colony forming unit assay. […]
Colony forming units and the expression of Glycophorin A (marker) on the cell surface were used as markers for stem cell erythropoesis. Additionally, the presence of the cell surface antigen CD34 was also monitored to assess the differentiation status of the in vitro expanded cell lineage.
Relative expansion rate of GlyA-positive cells: At day 0, the stage of differentiation only few, if any cells, are GlyA positive. […] The expansion rate is calculated as the absolute number of GlyA-positive cells at the time point of interest divided by the absolute number of GlyA-positive cells in the starting material.

CD34+ progenitor cells = settings: Myklebust et al., Experimental Hematology 30 (2002), 990; cited from earlier work

Human recombinant GST-PI3Kγ, sequence (P48736 whole entry): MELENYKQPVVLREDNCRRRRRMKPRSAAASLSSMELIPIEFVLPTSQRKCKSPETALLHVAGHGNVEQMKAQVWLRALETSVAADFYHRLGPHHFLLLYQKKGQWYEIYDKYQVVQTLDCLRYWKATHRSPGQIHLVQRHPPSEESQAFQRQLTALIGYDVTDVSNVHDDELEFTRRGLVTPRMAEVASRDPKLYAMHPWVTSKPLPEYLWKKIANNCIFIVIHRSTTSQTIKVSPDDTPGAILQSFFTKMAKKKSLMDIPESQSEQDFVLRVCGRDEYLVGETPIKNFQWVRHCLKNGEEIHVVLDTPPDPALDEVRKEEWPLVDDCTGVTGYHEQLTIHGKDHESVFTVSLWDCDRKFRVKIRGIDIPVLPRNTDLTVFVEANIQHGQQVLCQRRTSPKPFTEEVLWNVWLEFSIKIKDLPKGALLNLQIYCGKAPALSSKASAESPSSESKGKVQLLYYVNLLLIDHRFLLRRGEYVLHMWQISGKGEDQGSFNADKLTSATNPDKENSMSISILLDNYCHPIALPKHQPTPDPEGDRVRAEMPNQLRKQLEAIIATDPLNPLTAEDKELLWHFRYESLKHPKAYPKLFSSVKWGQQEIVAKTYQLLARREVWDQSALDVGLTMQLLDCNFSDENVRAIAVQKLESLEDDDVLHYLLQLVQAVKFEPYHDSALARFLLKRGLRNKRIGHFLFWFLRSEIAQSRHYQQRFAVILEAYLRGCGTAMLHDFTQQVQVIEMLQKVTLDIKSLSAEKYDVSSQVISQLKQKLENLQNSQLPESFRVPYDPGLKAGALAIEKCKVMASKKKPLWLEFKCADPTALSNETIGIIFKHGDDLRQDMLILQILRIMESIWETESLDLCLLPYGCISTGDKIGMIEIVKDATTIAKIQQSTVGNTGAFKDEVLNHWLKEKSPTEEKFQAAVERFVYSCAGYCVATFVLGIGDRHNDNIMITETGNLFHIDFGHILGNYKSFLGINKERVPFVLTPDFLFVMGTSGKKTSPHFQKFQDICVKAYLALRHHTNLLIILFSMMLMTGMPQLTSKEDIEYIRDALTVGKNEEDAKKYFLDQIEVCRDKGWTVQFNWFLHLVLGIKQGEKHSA
Human recombinant GST-PI3Kα, sequence (P42336 whole entry): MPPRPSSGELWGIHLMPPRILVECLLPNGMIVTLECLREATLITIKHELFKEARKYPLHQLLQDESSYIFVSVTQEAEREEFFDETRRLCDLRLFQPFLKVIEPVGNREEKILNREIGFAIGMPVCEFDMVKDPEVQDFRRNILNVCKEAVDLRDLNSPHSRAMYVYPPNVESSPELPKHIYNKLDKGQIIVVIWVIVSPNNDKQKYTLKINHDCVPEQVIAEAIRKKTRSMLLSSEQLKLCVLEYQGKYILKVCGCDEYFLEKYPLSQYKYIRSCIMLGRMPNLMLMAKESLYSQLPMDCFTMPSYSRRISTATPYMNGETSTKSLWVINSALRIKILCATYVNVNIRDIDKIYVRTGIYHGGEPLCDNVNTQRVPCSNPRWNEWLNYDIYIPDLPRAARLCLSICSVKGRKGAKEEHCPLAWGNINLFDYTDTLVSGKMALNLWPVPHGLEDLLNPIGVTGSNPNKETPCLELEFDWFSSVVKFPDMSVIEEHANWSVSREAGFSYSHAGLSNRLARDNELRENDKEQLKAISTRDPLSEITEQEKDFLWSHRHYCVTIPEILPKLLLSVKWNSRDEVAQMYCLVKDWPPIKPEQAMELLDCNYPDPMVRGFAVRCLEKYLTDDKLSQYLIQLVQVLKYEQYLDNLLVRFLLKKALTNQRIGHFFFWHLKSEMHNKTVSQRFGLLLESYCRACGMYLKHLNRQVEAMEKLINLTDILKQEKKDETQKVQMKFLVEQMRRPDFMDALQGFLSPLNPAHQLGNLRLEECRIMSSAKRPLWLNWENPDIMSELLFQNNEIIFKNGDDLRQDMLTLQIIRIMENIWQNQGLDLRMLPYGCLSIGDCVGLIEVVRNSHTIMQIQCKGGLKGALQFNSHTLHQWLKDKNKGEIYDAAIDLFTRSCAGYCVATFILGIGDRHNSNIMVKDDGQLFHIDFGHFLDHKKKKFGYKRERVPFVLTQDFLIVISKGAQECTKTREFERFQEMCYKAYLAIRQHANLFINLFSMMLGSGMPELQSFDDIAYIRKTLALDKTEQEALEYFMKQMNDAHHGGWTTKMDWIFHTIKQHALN

SMILES | IC50 [1] | IC50 [2] | IC50 [3] | further results
CN1C(=O)COc2ccc(C=C3SC(=O)NC3=O)cc21 [Example 6, 5-[(4-methyl-3-oxo-3,4-dihydro-2H-1,4-benzoxazin-6-yl)methylene]-1,3-thiazolidine-2,4-dione] | 0.17 µM | 0.03 µM | – | –
O=C1NC(=O)C(=Cc2ccc3c(c2)OCCO3)S1 [Example 3, 5-(2,3-dihydro-1,4-benzodioxin-6-ylmethylene)-1,3-thiazolidine-2,4-dione] | 0.31 µM | 0.05 µM | – | –
O=C1NC(=O)C(=Cc2ccc3c(c2)NCCO3)S1 [Example 10, 5-(3,4-Dihydro-2H-benzo[1,4]oxazin-6-ylmethylene)-thiazolidine-2,4-dione] | 2.1 µM | 0.59 µM | – | –
O=C(O)C=Cc1coc2ccc(C=C3SC(=O)NC3=O)cc12 [Example 9, 3-[5-(2,4-Dioxo-thiazolidin-5-ylidenemethyl)benzofuran-3-yl]-acrylic acid] | 0.032 µM | 0.008 µM | 2.48 µM | –
O=C1NC(=O)C(=Cc2ccc3c(c2)C(=O)c2ccccc2C3=O)S1 [Example 4, 5-[(9,10-dioxo-9,10-dihydroanthracen-2-yl)methylene]-1,3-thiazolidine-2,4-dione] | 1.37 µM | 0.316 µM | 4.87 µM | –
N=C1NC(=O)C(=Cc2ccc3c(c2)OCO3)S1 [Example 7, 5-(1,3-benzodioxol-5-ylmethylene)-2-imino-1,3-thiazolidin-4-one] | – | 0.71 µM | – | –
COC[C@H]1OC(=O)c2coc3c2[C@@]1(C)C1=C(C3=O)[C@@H]2CCC(=O)[C@@]2(C)C[C@H]1OC(C)=O [Wortmannin, wortmannin] | – | – | – | effect on EPO induced erythroid differentiation of K562 cells [4]: prevents K562 erythroleukemia cells from EPO induced erythroid differentiation
O=C1NC(=O)C(=Cc2ccc3c(c2)OCO3)S1 [Example 1, 5-(1,3-benzodioxol-5-ylmethylene)-1,3-thiazolidine-2,4-dione] | 0.25 µM | 0.07 µM | 1.7 µM | increase of the expansion of nucleated cells over the control ([5]; in 13 days, compound added at day 1): 4 fold; cell proliferation ([5]; same culture, 13 days): not enhanced
Nc1noc2ccc(C=C3SC(=O)NC3=O)cc12 [Example 11, 5-(3-Amino-benzo[d]isoxazol-5-ylmethylene)thiazolidine-2,4-dione] | 0.46 µM | 0.095 µM | 10 µM | –
O=C1NC(=O)C(=Cc2ccc3nonc3c2)S1 [Example 12, 5-Benzo[1,2,5]oxadiazol-5-ylmethylene-thiazolidine-2,4-ione] | 0.37 µM | 0.035 µM | 2.73 µM | –
Cc1coc2ccc(C=C3SC(=O)NC3=O)cc12 [Example 8, 5-(3-Methyl-benzofuran-5-ylmethylene)-thiazolidine-2,4-dione] | 0.135 µM | 0.03 µM | 1.97 µM | –
O=C1NC(=S)SC1=Cc1ccc2c(c1)OCO2 [Example 2, 5-(1,3-benzodioxol-5-ylmethylene)-2-thioxo-1,3-thiazolidin-4-one] | 0.45 µM | 0.115 µM | – | –
O=C1NC(=O)C(=Cc2ccc3cc(F)oc3c2)S1 [Example 13, 5-(2-Fluoro-benzofuran-6-ylmethylene)-thiazolidine-2,4-dione] | 1.2 µM | 0.29 µM | – | –
O=c1cc(N2CCOCC2)oc2c(-c3ccccc3)cccc12 [LY294002] | – | – | – | effect on EPO induced erythropoiesis from CD34+ progenitor cells (CD34+ progenitor cells): inhibit EPO induced erythropoiesis
N#CN=C1NC(=O)C(=Cc2ccc3c(c2)OCO3)S1 [Example 14, 5-Benzo[1,3]dioxol-5-ylmethylene-4-oxo-thiazolidin-2-ylidene-cyanamide] | 0.231 µM | 0.021 µM | 1.17 µM | –
